Assay results from US12630600B2 (MEDIMMUNE LIMITED, priority 2022, dated 2026).
Starred links: 1 amine or outer side, 2 acyl side, 3 side chain; linkers in the order of their positions; H or OH if unused. Non-standard residues stand in square brackets, D forms with d. Residues, ends and D or L forms follow the SMILES beside them. Groups on a side chain read outwards from the residue. *: point of attachment. C20 diacid = O=C(O)CCCCCCCCCCCCCCCCCCC(=O)*; C18 diacid = O=C(O)CCCCCCCCCCCCCCCCC(=O)*; γGlu = O=C(O)[C@H](CCC(=O)[*:2])N[*:1]; αMeF = C[C@](N)(Cc1ccccc1)C(=O)O; AEEA = NCCOCCOCC(=O)O; Aib = CC(C)(N)C(=O)O

target: T1, human GLP-1 receptor (hGLP-1R) (Homo sapiens, UniProt P43220); test: cAMP production (HTRF) in CHO cells expressing human GLP-1 receptor; format: cell-based; details: Table 8; % GLP-1R activity relative to GLP-1 / % GlucR activity relative to glucagon
T1 construct: expressed in transfected cells; host or cells: CHO
Method: Cells were re-suspended in assay buffer at a batch-dependent optimized concentration (typically hGLP-1R cells at 1×10^5 cells/mL, hGCGR cells at 2×10^5 cells/mL).
Cells were added to the assay plate using a multidrop dispenser and incubated at room temperature for 30 minutes before measuring the cAMP level using a cAMP dynamic 2 homogeneous time resolved Fluorescence (HTRF) kit (Cisbio Bioassays #62AM4PEJ) following the two-step protocol as per manufacturer's recommendations. In brief, anti-cAMP cryptate (donor fluorophore) and cAMP-d2 (acceptor fluorophore) were made up separately by diluting each 1 in 20 in conjugate and lysis buffer provided in the kit. Anti-cAMP cryptate was added to all wells of the assay plate, followed by cAMP-d2 added to all wells except non-specific binding (NSB) wells (to which conjugate and lysis buffer was added).
Data was transformed to % Delta F as described in the manufacturer's guidelines and analyzed by 4-parameter logistic fit to determine EC50 values.

T1 sequence (P43220 24-463): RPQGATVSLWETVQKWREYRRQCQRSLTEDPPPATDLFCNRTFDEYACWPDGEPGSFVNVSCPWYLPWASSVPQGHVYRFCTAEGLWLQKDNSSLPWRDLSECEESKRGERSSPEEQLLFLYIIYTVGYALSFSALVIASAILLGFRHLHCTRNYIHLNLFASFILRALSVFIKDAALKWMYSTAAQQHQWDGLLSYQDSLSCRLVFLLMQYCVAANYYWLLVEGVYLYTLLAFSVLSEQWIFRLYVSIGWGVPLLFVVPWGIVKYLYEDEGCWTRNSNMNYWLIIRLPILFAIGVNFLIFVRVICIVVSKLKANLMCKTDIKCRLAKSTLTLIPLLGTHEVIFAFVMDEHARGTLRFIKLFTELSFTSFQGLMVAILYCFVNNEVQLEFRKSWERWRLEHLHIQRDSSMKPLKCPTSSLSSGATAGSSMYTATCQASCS

Compound | % Relative Potency Ratio
CC[C@H](C)[C@H](NC(=O)[C@H](Cc1c[nH]c2ccccc12)NC(=O)[C@H](CCCCNC(=O)COCCOCCNC(=O)COCCOCCNC(=O)CC[C@H](NC(=O)CCCCCCCCCCCCCCCCCCC(=O)O)C(=O)O)NC(=O)[C@@H](NC(=O)[C@H](Cc1ccccc1)NC(=O)[C@H](CC(=O)O)NC(=O)[C@H](CCC(N)=O)NC(=O)[C@H](C)NC(=O)[C@H](C)NC(=O)[C@H](CCCNC(=N)N)NC(=O)[C@H](CO)NC(=O)[C@H](CC(=O)O)NC(=O)[C@H](CC(C)C)NC(=O)[C@](C)(Cc1ccccc1)NC(=O)[C@H](CCCCN)NC(=O)[C@H](CO)NC(=O)[C@@H](NC(=O)[C@H](CC(=O)O)NC(=O)[C@H](CO)NC(=O)[C@@H](NC(=O)[C@](C)(Cc1ccccc1)NC(=O)[C@H](CO)NC(=O)CNC(=O)[C@H](Cc1c[nH]cn1)NC(=O)C(C)(C)NC(=O)[C@@H](N)Cc1c[nH]cn1)[C@@H](C)O)C(C)C)C(C)C)C(=O)N[C@@H](C)C(=O)N[C@@H](CC(N)=O)C(=O)N[C@H](C(N)=O)[C@@H](C)O [Peptide 367] (H-H[Aib]HGS[αMeF]TSDVSK[αMeF]LDSRAAQDFVK([AEEA-AEEA-γGlu-C20 diacid])WIANT-NH2; N-terminus assumed) | 1.0
CC[C@H](C)[C@H](NC(=O)[C@H](Cc1c[nH]c2ccccc12)NC(=O)[C@H](CCCCNC(=O)CC[C@H](NC(=O)CCCCCCCCCCCCCCCCC(=O)O)C(=O)O)NC(=O)[C@@H](NC(=O)[C@H](Cc1ccccc1)NC(=O)[C@H](CC(=O)O)NC(=O)[C@H](CCC(N)=O)NC(=O)[C@H](C)NC(=O)[C@H](C)NC(=O)[C@H](CCC(N)=O)NC(=O)[C@H](CO)NC(=O)[C@H](CC(=O)O)NC(=O)[C@H](CC(C)C)NC(=O)[C@](C)(Cc1ccccc1)NC(=O)[C@H](CCCCN)NC(=O)[C@H](CO)NC(=O)[C@@H](NC(=O)[C@H](CC(=O)O)NC(=O)[C@H](CO)NC(=O)[C@@H](NC(=O)[C@](C)(Cc1ccccc1)NC(=O)[C@H](CO)NC(=O)CNC(=O)[C@H](Cc1c[nH]cn1)NC(=O)C(C)(C)NC(=O)[C@@H](N)Cc1c[nH]cn1)[C@@H](C)O)C(C)C)C(C)C)C(=O)N[C@@H](C)C(=O)N[C@@H](CC(N)=O)C(=O)N[C@H](C(N)=O)[C@@H](C)O [Peptide 351] (H-H[Aib]HGS[αMeF]TSDVSK[αMeF]LDSQAAQDFVK([γGlu-C18 diacid])WIANT-NH2) | 0.7
CC[C@H](C)[C@H](NC(=O)[C@H](Cc1c[nH]c2ccccc12)NC(=O)[C@H](CCCCNC(=O)CC[C@H](NC(=O)CCCCCCCCCCCCCCCCCCC(=O)O)C(=O)O)NC(=O)[C@@H](NC(=O)[C@H](Cc1ccccc1)NC(=O)[C@H](CC(=O)O)NC(=O)[C@H](CCC(N)=O)NC(=O)[C@H](C)NC(=O)[C@H](C)NC(=O)[C@H](CCC(N)=O)NC(=O)[C@H](CO)NC(=O)[C@H](CC(=O)O)NC(=O)[C@H](CC(C)C)NC(=O)[C@](C)(Cc1ccccc1)NC(=O)[C@H](CCCCN)NC(=O)[C@H](CO)NC(=O)[C@@H](NC(=O)[C@H](CC(=O)O)NC(=O)[C@H](CO)NC(=O)[C@@H](NC(=O)[C@H](Cc1ccccc1)NC(=O)[C@@H](NC(=O)CNC(=O)[C@H](Cc1c[nH]cn1)NC(=O)C(C)(C)NC(=O)[C@@H](N)Cc1c[nH]cn1)[C@@H](C)O)[C@@H](C)O)C(C)C)C(C)C)C(=O)N[C@@H](C)C(=O)N[C@@H](CC(N)=O)C(=O)N[C@H](C(N)=O)[C@@H](C)O [Peptide 347] | 0.2
CC[C@H](C)[C@H](NC(=O)C(C)(C)NC(=O)[C@H](CCCCNC(=O)COCCOCCNC(=O)COCCOCCNC(=O)CC[C@H](NC(=O)CCCCCCCCCCCCCCCCCCC(=O)O)C(=O)O)NC(=O)[C@@H](NC(=O)[C@H](Cc1ccccc1)NC(=O)[C@H](CC(=O)O)NC(=O)[C@H](CCC(N)=O)NC(=O)[C@H](C)NC(=O)[C@H](C)NC(=O)[C@H](CCCNC(=N)N)NC(=O)[C@H](CO)NC(=O)[C@H](CC(=O)O)NC(=O)[C@H](CC(C)C)NC(=O)[C@](C)(Cc1ccccc1)NC(=O)[C@H](CCCCN)NC(=O)[C@H](CO)NC(=O)[C@@H](NC(=O)[C@H](CC(=O)O)NC(=O)[C@H](CO)NC(=O)[C@@H](NC(=O)[C@](C)(Cc1ccccc1)NC(=O)[C@H](CO)NC(=O)CNC(=O)[C@H](Cc1c[nH]cn1)NC(=O)C(C)(C)NC(=O)[C@@H](N)Cc1c[nH]cn1)[C@@H](C)O)C(C)C)C(C)C)C(=O)N[C@@H](C)C(=O)N[C@@H](CC(N)=O)C(=O)N[C@H](C(N)=O)[C@@H](C)O [Peptide 369] (H-H[Aib]HGS[αMeF]TSDVSK[αMeF]LDSRAAQDFVK([AEEA-AEEA-γGlu-C20 diacid])[Aib]IANT-NH2) | 3.8
CC[C@H](C)[C@H](NC(=O)C(C)(C)NC(=O)[C@H](CCCCNC(=O)COCCOCCNC(=O)COCCOCCNC(=O)CC[C@H](NC(=O)CCCCCCCCCCCCCCCCC(=O)O)C(=O)O)NC(=O)[C@@H](NC(=O)[C@H](Cc1ccccc1)NC(=O)[C@H](CC(=O)O)NC(=O)[C@H](CCC(N)=O)NC(=O)[C@H](C)NC(=O)[C@H](C)NC(=O)[C@H](CCCNC(=N)N)NC(=O)[C@H](CO)NC(=O)[C@H](CC(=O)O)NC(=O)[C@H](CC(C)C)NC(=O)[C@](C)(Cc1ccccc1)NC(=O)[C@H](CCCCN)NC(=O)[C@H](CO)NC(=O)[C@@H](NC(=O)[C@H](CC(=O)O)NC(=O)[C@H](CO)NC(=O)[C@@H](NC(=O)[C@](C)(Cc1ccccc1)NC(=O)[C@H](CO)NC(=O)CNC(=O)[C@H](Cc1c[nH]cn1)NC(=O)C(C)(C)NC(=O)[C@@H](N)Cc1c[nH]cn1)[C@@H](C)O)C(C)C)C(C)C)C(=O)N[C@@H](C)C(=O)N[C@@H](CC(N)=O)C(=O)N[C@H](C(N)=O)[C@@H](C)O [Peptide 366] (H-H[Aib]HGS[αMeF]TSDVSK[αMeF]LDSRAAQDFVK([AEEA-AEEA-γGlu-C18 diacid])[Aib]IANT-NH2; N-terminus assumed) | 1.7
CC[C@H](C)[C@H](NC(=O)[C@H](Cc1c[nH]c2ccccc12)NC(=O)[C@H](CCCCNC(=O)COCCOCCNC(=O)COCCOCCNC(=O)CC[C@H](NC(=O)CCCCCCCCCCCCCCCCCCC(=O)O)C(=O)O)NC(=O)[C@@H](NC(=O)[C@H](Cc1ccccc1)NC(=O)[C@H](CC(=O)O)NC(=O)[C@H](CCC(N)=O)NC(=O)[C@H](C)NC(=O)[C@H](C)NC(=O)[C@H](CCC(N)=O)NC(=O)[C@H](CO)NC(=O)[C@H](CC(=O)O)NC(=O)[C@H](CC(C)C)NC(=O)[C@](C)(Cc1ccccc1)NC(=O)[C@H](CCCCN)NC(=O)[C@H](CO)NC(=O)[C@@H](NC(=O)[C@H](CC(=O)O)NC(=O)[C@H](CO)NC(=O)[C@@H](NC(=O)[C@](C)(Cc1ccccc1)NC(=O)[C@H](CO)NC(=O)CNC(=O)[C@H](Cc1c[nH]cn1)NC(=O)C(C)(C)NC(=O)[C@@H](N)Cc1c[nH]cn1)[C@@H](C)O)C(C)C)C(C)C)C(=O)N[C@@H](C)C(=O)N[C@@H](CC(N)=O)C(=O)N[C@H](C(N)=O)[C@@H](C)O [Peptide 356] (H-H[Aib]HGS[αMeF]TSDVSK[αMeF]LDSQAAQDFVK([AEEA-AEEA-γGlu-C20 diacid])WIANT-NH2) | 2.1
CC[C@H](C)[C@H](NC(=O)[C@H](Cc1c[nH]c2ccccc12)NC(=O)[C@H](CCCCNC(=O)COCCOCCNC(=O)COCCOCCNC(=O)CC[C@H](NC(=O)CC[C@H](NC(=O)CCCCCCCCCCCCCCCCCCC(=O)O)C(=O)O)C(=O)O)NC(=O)[C@@H](NC(=O)[C@](C)(Cc1ccccc1)NC(=O)[C@H](CC(=O)O)NC(=O)[C@H](CCC(N)=O)NC(=O)[C@H](C)NC(=O)[C@H](C)NC(=O)[C@H](CCCNC(=N)N)NC(=O)[C@H](CO)NC(=O)[C@H](CC(=O)O)NC(=O)[C@H](CC(C)C)NC(=O)[C@](C)(Cc1ccccc1)NC(=O)[C@H](CCCCN)NC(=O)[C@H](CO)NC(=O)[C@@H](NC(=O)[C@H](CC(=O)O)NC(=O)[C@H](CO)NC(=O)[C@@H](NC(=O)[C@](C)(Cc1ccccc1)NC(=O)[C@H](CO)NC(=O)CNC(=O)[C@H](Cc1c[nH]cn1)NC(=O)C(C)(C)NC(=O)[C@@H](N)Cc1c[nH]cn1)[C@@H](C)O)C(C)C)C(C)C)C(=O)N[C@@H](C)C(=O)N[C@@H](CC(N)=O)C(=O)N[C@H](C(N)=O)[C@@H](C)O [Peptide 374] (H-H[Aib]HGS[αMeF]TSDVSK[αMeF]LDSRAAQD[αMeF]VK([AEEA-AEEA-γGlu-γGlu-C20 diacid])WIANT-NH2; N-terminus assumed) | 1.2
CC[C@H](C)[C@H](NC(=O)[C@H](Cc1c[nH]c2ccccc12)NC(=O)[C@H](CCCCNC(=O)COCCOCCNC(=O)COCCOCCNC(=O)CC[C@H](NC(=O)CCCCCCCCCCCCCCCCC(=O)O)C(=O)O)NC(=O)[C@@H](NC(=O)[C@H](Cc1ccccc1)NC(=O)[C@H](CC(=O)O)NC(=O)[C@H](CCC(N)=O)NC(=O)[C@H](C)NC(=O)[C@H](C)NC(=O)[C@H](CCC(N)=O)NC(=O)[C@H](CO)NC(=O)[C@H](CC(=O)O)NC(=O)[C@H](CC(C)C)NC(=O)[C@](C)(Cc1ccccc1)NC(=O)[C@H](CCCCN)NC(=O)[C@H](CO)NC(=O)[C@@H](NC(=O)[C@H](CC(=O)O)NC(=O)[C@H](CO)NC(=O)[C@@H](NC(=O)[C@](C)(Cc1ccccc1)NC(=O)[C@H](CO)NC(=O)CNC(=O)[C@H](Cc1c[nH]cn1)NC(=O)C(C)(C)NC(=O)[C@@H](N)Cc1c[nH]cn1)[C@@H](C)O)C(C)C)C(C)C)C(=O)N[C@@H](C)C(=O)N[C@@H](CC(N)=O)C(=O)N[C@H](C(=O)NCC(=O)NCC(N)=O)[C@@H](C)O [Peptide 350] (H-H[Aib]HGS[αMeF]TSDVSK[αMeF]LDSQAAQDFVK([AEEA-AEEA-γGlu-C18 diacid])WIANTGG-NH2; N-terminus assumed) | 8.6

same assay, conditions: Table 9; % GLP-1R activity relative to GLP-1 / % GlucR activity relative to glucagon

% Relative Potency Ratio | Compound
7.3 | HSQGS(αMePhe)TSDK((PEG)2-(PEG)2-γE-γE-Palmitoyl)10SK(Dip)LDS(ß-dimethylArg)AAQD(αMePhe)VE(Aib)LANT-amide [Peptide 394]
